Literature values, collected in patent US20090297625A1, “AGENT FOR TREATING EYE DISEASES” (OTKRYTOE AKTSIONERNOE OBSCHESTVO ZAVOD, priority 2006, published 2009).

Conditions: administration of lutein as an additive

For `CC1=C[C@H](O)CC(C)(C)[C@H]1/C=C/C(C)=C/C=C/C(C)=C/C=C/C=C(C)/C=C/C=C(C)/C=C/C1=C(C)C[C@@H](O)CC1(C)C` [lutein], the “absorption and storage in the macula lutea” value is listed as “well absorbed and stored in the macula lutea”.
